Results: patent US20250186445A1, “TREATMENT OF CANCER WITH MENIN INHIBITORS AND IMMUNO-ONCOLOGY AGENTS” (University Health Network, priority 2022, published 2025)
Entries after “also recorded” stand apart in the source; their conditions may differ.

Assays:
MC38 cells = test: Cytokine gene expression in MC38 cells in 2D culture treated with Compound I; assay type: cell-based; settings: FIG. 5B
[1] = tested on: CT26 colorectal carcinomas; test: CT26 colorectal carcinoma tumor growth in immunocompetent (BALB/c) mice; assay type: in vivo, mouse
Description: Effects of Compound I in combination with PD-L1/PD-1 immune checkpoint blockade on tumor growth were investigated in CT26 tumors.

CT26 cells = test: Cytokine gene expression in CT26 cells in 2D culture treated with Compound I; assay type: cell-based, mouse; settings: FIG. 5A

CNc1nc(NC2CCN(Cc3ccc4c(cc(C#N)n4C[C@H](C)N4CCN(S(C)(=O)=O)CC4)c3C)CC2)c2cc(CC(F)(F)F)sc2n1 [Compound I]
cytokine gene expression (MC38 cells): induces cytokine gene expression
tumor growth ([1]; BALB/c mice bearing CT26, 100 mg/kg orally QD, FIG. 6A): reduced tumor growth
CD8+ T-cell infiltration ([1]; CT26 tumors in BALB/c mice, FIGS. 6B-C): increased CD8+ T-cell infiltration
reduction in tumor growth with concomitant anti-CD8 antibody ([1]; CT26 tumors in BALB/c mice, concomitant anti-CD8 antibody, FIG. 6D): could be blocked
CT26 tumor growth, combination of Compound I and anti-PD-1 antibody ([1]; CT26 tumors, combination with anti-PD-1 antibody, FIG. 7): the combination enhanced the activity of anti-PD1 immunotherapy
CT26 tumor growth, single agent ([1]; CT26 tumors, each agent alone, FIG. 7): substantially reduced
induction of cytokine-related genes (IL33, CXCL10, CXCL9, CD40, CCL4) (CT26 cells): Dose-dependent induction; also recorded: induces cytokine gene expression
